Key:
human CK2 holoenzyme [1] = target: T1, human CK2 holoenzyme (Homo sapiens, UniProt P68400); assay: biochemical; conditions: for inhibition at 10 µM: read-out: CK2 inhibition % at 10 µM
ABCG2 [2] = target: T2, ABCG2 (Homo sapiens, UniProt Q9UNQ0); assay: Vanadate-sensitive ATPase activity of ABCG2 in Sf9 insect cell membranes; conditions: 2 μM compound; for Stimulation of vanadate-sensitive ABCG2 ATPase activity: basal activity without inhibitor taken as 100%
T2 sequence (Q9UNQ0 1-655): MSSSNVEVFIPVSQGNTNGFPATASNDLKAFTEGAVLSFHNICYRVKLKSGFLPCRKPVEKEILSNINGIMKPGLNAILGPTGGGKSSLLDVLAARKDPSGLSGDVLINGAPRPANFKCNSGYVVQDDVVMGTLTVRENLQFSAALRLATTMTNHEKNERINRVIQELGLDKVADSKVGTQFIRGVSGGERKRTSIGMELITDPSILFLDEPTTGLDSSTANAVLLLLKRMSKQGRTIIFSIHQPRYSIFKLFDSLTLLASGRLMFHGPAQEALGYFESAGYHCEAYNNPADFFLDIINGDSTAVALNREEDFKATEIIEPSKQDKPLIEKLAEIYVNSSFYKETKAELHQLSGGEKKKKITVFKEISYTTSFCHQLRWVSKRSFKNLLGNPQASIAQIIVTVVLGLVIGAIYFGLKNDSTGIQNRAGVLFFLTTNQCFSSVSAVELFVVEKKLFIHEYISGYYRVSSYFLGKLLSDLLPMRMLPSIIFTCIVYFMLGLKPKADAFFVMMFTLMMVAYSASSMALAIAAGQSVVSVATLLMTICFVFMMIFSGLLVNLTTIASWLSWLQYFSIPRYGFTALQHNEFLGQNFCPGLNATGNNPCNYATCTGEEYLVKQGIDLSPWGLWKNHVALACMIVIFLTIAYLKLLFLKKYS

Wild-type HEK293 cells = assay: Intrinsic cytotoxicity, MTT cell-survival assay; conditions: 72 hours of treatment
MRP1/ABCC1 = MRP1/ABCC1 (Homo sapiens, UniProt P33527); assay: Inhibition of MRP1-mediated calcein efflux in HEK293-ABCC1 cells; type: cell-based; conditions: 2 μM or 10 μM; 35 μM verapamil taken as 100%
ABCG2 [3] = target: T2, ABCG2; assay: Inhibition of ABCG2-mediated mitoxantrone efflux in ABCG2-transfected cells; type: cell-based
human CK2 holoenzyme [4] = target: T1, human CK2 holoenzyme; conditions: IC50 (CK2) divided by IC50 (ABCG2) of Table 1

Chain of MRP1/ABCC1 (P33527 whole entry): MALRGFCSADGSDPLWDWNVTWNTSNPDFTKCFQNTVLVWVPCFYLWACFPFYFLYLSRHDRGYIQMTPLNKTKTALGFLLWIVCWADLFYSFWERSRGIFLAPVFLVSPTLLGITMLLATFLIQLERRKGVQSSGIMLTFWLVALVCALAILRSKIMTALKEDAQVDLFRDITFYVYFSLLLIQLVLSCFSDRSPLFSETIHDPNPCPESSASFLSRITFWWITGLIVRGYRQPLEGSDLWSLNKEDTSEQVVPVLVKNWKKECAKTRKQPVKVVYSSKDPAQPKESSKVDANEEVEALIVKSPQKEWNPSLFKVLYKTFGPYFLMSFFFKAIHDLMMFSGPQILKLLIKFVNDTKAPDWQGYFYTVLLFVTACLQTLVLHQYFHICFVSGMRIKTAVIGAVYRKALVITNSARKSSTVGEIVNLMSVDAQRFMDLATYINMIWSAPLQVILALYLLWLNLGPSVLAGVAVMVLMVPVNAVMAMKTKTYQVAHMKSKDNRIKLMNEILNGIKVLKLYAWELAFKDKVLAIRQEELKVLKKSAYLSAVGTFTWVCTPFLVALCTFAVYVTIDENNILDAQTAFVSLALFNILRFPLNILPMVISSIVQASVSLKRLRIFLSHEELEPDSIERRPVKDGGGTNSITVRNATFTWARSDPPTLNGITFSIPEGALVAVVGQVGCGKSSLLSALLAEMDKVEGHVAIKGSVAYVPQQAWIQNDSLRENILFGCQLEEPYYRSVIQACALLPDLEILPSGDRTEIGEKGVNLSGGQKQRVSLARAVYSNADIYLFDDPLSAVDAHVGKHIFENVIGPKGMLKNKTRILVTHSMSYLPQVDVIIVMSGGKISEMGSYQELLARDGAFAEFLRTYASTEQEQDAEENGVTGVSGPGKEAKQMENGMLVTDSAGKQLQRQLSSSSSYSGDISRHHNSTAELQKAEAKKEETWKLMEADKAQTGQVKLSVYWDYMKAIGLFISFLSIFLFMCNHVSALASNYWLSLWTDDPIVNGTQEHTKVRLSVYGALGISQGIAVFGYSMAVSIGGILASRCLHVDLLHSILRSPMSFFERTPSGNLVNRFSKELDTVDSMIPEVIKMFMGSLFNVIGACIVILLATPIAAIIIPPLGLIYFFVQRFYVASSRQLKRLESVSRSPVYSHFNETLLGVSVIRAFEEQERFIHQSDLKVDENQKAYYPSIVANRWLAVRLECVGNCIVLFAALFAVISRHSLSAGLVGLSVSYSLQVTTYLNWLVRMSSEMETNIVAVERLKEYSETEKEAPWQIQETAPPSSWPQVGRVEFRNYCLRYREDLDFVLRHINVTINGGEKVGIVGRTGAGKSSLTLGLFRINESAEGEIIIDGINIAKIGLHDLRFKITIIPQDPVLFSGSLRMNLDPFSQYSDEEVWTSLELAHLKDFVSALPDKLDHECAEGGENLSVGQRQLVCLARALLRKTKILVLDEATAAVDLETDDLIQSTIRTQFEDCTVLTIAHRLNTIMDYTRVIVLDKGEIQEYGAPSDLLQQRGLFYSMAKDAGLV
T1 sequence (P68400 whole entry): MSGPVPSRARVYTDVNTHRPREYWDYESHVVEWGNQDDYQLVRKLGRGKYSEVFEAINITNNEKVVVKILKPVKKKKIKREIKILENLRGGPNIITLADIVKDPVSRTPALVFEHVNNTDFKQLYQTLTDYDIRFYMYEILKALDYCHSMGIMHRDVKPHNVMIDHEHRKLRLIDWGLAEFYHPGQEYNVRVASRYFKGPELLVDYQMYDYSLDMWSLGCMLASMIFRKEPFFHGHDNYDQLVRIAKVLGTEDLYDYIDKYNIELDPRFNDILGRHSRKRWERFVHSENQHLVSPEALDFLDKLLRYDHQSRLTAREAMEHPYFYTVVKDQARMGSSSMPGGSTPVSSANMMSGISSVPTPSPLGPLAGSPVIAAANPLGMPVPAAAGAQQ
T1 sequence (P67870 whole entry partner): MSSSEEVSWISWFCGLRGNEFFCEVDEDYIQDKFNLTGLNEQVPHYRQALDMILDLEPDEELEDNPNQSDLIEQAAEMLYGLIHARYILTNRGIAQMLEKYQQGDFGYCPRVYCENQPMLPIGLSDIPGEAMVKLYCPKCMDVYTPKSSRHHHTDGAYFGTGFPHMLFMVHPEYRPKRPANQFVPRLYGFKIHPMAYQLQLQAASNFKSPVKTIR

Row | Structure (SMILES) | IC50 (human CK2 holoenzyme [1]) [µM] | inhibition at 10 µM (human CK2 holoenzyme [1]) [%] | Stimulation of vanadate-sensitive ABCG2 ATPase activity (ABCG2 [2]) | Cytotoxicity IG50 (Wild-type HEK293 cells) [µM] | Inhibition of MRP1-mediated calcein efflux (MRP1/ABCC1) | IC50 (ABCG2 [3]) [µM] | AGCG2/CK2 (human CK2 holoenzyme [4]) | Effect on ABCG2 basal ATPase activity (ABCG2 [2])
1 | O=C1c2ccccc2-c2c1c1c(O)cccc1n2CCc1ccccc1 [Compound 5c, 9-Hydroxy-5-(2-phenylethyl)-5H-indeno[1,2-b]indole-10-one] | 7.5 | 57 | 2- to 4.5 fold | 42.7 ± 9.7 | very limited, if any, inhibition | 0.16 ± 0.02 | 47 | 
2 | O=C1c2ccccc2-c2c1c1c(O)cccc1n2CCCc1ccccc1 [Compound 5d, 9-Hydroxy-5-(3-phenylpropyl)-5H-indeno[1,2-b]indole-10-one] | ~20 | 27 | 2- to 4.5 fold |  |  | 0.64 ± 0.23 |  | 
3 | Cc1cc(O)c2c3c(n(CCc4ccccc4)c2c1)-c1ccccc1C3=O [Compound 5f, 9-Hydroxy-7-methyl-5-(2-phenylethyl)-5H-indeno[1,2-b]indole-10-one] |  |  | 2- to 4.5 fold | 42.3 ± 2.8 | very limited, if any, inhibition | 0.16 ± 0.01 |  | 
4 | O=C1c2ccccc2-c2c1c1c(O)cc(-c3ccccc3)cc1n2CCc1ccccc1 [Compound 5g, 9-Hydroxy-7-phenyl-5-(2-phenylethyl)-5H-indeno[1,2-b]indole-10-one] | ~11 |  | 2- to 4.5 fold |  |  | 0.51 ± 0.09 |  | 
5 | COc1ccccc1CCn1c2c(c3c(O)cccc31)C(=O)c1ccccc1-2 [Compound 5h, 9-Hydroxy-5-[2-(2-methoxyphenyl)ethyl]-5H-indeno[1,2-b]indole-10-one] | 1.3 |  | 2- to 4.5 fold | 54 ± 14 | very limited, if any, inhibition | 0.15 ± 0.01 |  | 
6 | COc1cccc(CCn2c3c(c4c(O)cccc42)C(=O)c2ccccc2-3)c1 [Compound 5i, 9-Hydroxy-5-[2-(3-methoxyphenyl)ethyl]-5H-indeno[1,2-b]indole-10-one] | ~11.5 | 44 | 2- to 4.5 fold | 45.7 ± 6.1 |  | 0.37 ± 0.09 |  | 
7 | COc1ccc(CCn2c3c(c4c(O)cccc42)C(=O)c2ccccc2-3)cc1 [Compound 5j, 9-Hydroxy-5-[2-(4-methoxyphenyl)ethyl]-5H-indeno[1,2-b]indole-10-one] | ~14 |  | 2- to 4.5 fold |  |  | 0.2 ± 0.01 |  | maximal stimulation
8 | O=c1ccc(=O)c2c1c1c(=O)c3ccccc3c1n2CCc1ccccc1 [Compound 6c, 5-(2-Phenylethyl)-5H-indeno[1,2-b]indole-6,9,10-trione] | ~13 | 40 |  | 6.9 ± 2.1 |  | ~30 |  | did not produce any effect
9 | O=c1ccc(=O)c2c1c1c(=O)c3ccccc3c1n2CCCc1ccccc1 [Compound 6d, 5-(3-Phenylpropyl)-5H-indeno[1,2-b] indole-6,9,10-trione] | 6.4 | 60 |  | 6.8 ± 0.5 |  | ~15 |  | 
10 | O=c1cc(-c2ccccc2)c(=O)c2c1c1c(=O)c3ccccc3c1n2Cc1ccccc1 [Compound 6e, 5-Benzyl-7-phenyl-5H-indeno[1,2-b]indole-6,9,10-trione] | ~13 | 40 |  | 7.1 ± 1.1 |  | ~13 |  | did not produce any effect
11 | Cc1cc(=O)c2c3c(=O)c4ccccc4c3n(CCc3ccccc3)c2c1=O [Compound 6f, 7-Methyl-5-(2-phenylethyl)-5H-indeno[1,2-b]indole-6,9,10-trione] |  |  |  | 15.6 ± 5.9 | very limited, if any, inhibition | 0.84 ± 0.31 |  | did not produce any effect
12 | O=c1cc(-c2ccccc2)c(=O)c2c1c1c(=O)c3ccccc3c1n2CCc1ccccc1 [Compound 6g, 7-Phenyl-5-(2-phenylethyl)-5H-indeno[1,2-b]indole-6,9,10-trione] | ~11.5 | 44 |  | 3.7 ± 2.2 | very limited, if any, inhibition | 0.43 ± 0.01 |  | very limited stimulation

— publication PMC4498724 (Drug Design, Development and Therapy, 2015)
